Experimental data taken from the supplement of paper PMC11061612.

Columns and labels:
Assay in all cases: combination Emax (second highest fraction inhibited in the dose matrix, 72 h); higher = more inhibition; extreme values may be limits of the assay
[1] = system: U251 (Low Grade Glioma)
Method in brief: (§1)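 Bliss excess equals the observed combination effect minus the expected value EA + EB − EA·EB, where EA and EB are the effects of each agent alone. Combination Emax is the second-highest inhibition within the matrix. Inhibition was scaled from CellTiter-Glo 2.0 luminescence, with 0 set by vehicle wells and 1 by blank wells, after 72 hours of two-drug dosing of cells plated in 1536-well plates.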

[2] = system: MEL-JUSO (Melanoma)
Method in brief: as §1

[3] = system: LN-18 (Glioblastoma)
Method in brief: as §1

[4] = system: HDQ-P1 (Breast Carcinoma)
Method in brief: as §1

[5] = system: PANC-08-13 (Pancreatic Carcinoma)
Method in brief: as §1

[6] = system: GR-ST (B-Lymphoblastic Leukemia)
Method in brief: as §1

[7] = system: CHP-212 (Neuroblastoma)
Method in brief: as §1

[8] = system: K-562 (Chronic Myelogenous Leukemia)
Method in brief: as §1

[9] = system: P12-ICHIKAWA (T-Lymphoblastic Leukemia)
Method in brief: as §1

[10] = system: KARPAS-45 (T-Lymphoblastic Leukemia)
Method in brief: as §1

[11] = system: ES1 (Ewing's Sarcoma)
Method in brief: as §1

[12] = system: NCI-H847 (Small Cell Lung Carcinoma)
Method in brief: as §1

[13] = system: SR (Other Blood Carcinomas)
Method in brief: as §1

[14] = system: ES8 (Ewing's Sarcoma)
Method in brief: as §1

[15] = system: KCL-22 (Chronic Myelogenous Leukemia)
Method in brief: as §1

[16] = system: NCI-H1792 (Lung Adenocarcinoma)
Method in brief: as §1

[17] = system: BL-41 (Burkitt's Lymphoma)
Method in brief: as §1

[18] = system: COLO-678 (Colorectal Carcinoma)
Method in brief: as §1

[19] = system: KM12 (Colorectal Carcinoma)
Method in brief: as §1

[20] = system: SW1417 (Colorectal Carcinoma)
Method in brief: as §1

SMILES	combination Emax [1]	combination Emax [2]	combination Emax [3]	combination Emax [4]	combination Emax [5]	combination Emax [6]	combination Emax [7]	combination Emax [8]	combination Emax [9]	combination Emax [10]	combination Emax [11]	combination Emax [12]	combination Emax [13]	combination Emax [14]	combination Emax [15]	combination Emax [16]	combination Emax [17]	combination Emax [18]	combination Emax [19]	combination Emax [20]
CN(CCO)CC[C@H](CSc1ccccc1)Nc1ccc(S(=O)(=O)NC(=O)c2ccc(N3CCC([C@@H](O)c4ccccc4-c4ccc(Cl)cc4)CC3)cc2)cc1S(=O)(=O)C(F)(F)F [AZD4320] + C[C@@H]1COCCN1C2=NC(=NC(=C2)C3(CC3)[S@](=N)(=O)C)C4=C5C=CNC5=NC=C4 [AZD6738] (first compound max 1 µM, 7x7, partner max 10 µM)	0.534	0.642	0.847	0.745	0.636	0.745	0.82	0.88	1	1	0.942	1	0.982	1	0.976	0.777	1	0.11	0.764	–
Cc1c2c(nn1C)CSCc1cc(n(C)n1)CSc1cc(c3ccccc3c1)OCCCc1c(C(=O)O)n(C)c3c-2c(Cl)ccc13 [AZD5991] + C1CN(CCC1(C(=O)N[C@@H](CCO)C2=CC=C(C=C2)Cl)N)C3=NC=NC4=C3C=CN4 [Capivasertib] (first compound max 1 µM, 7x7, partner max 3 µM)	0.224	0.346	0.409	0.232	0.15	0.38	–	0.374	1	1	0.955	0.78	0.993	0.679	0.981	0.302	1	0.194	0.553	0.208
Cc1c2c(nn1C)CSCc1cc(n(C)n1)CSc1cc(c3ccccc3c1)OCCCc1c(C(=O)O)n(C)c3c-2c(Cl)ccc13 [AZD5991] + C=CCn1c(=O)c2cnc(Nc3ccc(N4CCN(C)CC4)cc3)nc2n1-c1cccc(C(C)(C)O)n1 [AZD1775] (first compound max 1 µM, partner max 1 µM)	0.423	0.749	0.602	0.579	0.379	0.791	0.916	0.747	1	1	–	1	0.923	0.717	0.969	0.708	1	0.391	0.875	0.542
Cc1cc2ncnn2cc1Nc1ncc2c(n1)n(C1CCOCC1)c(=O)n2C [AZD7648] + C[C@@H]1COCCN1C2=NC(=NC(=C2)C3(CC3)[S@](=N)(=O)C)C4=C5C=CNC5=NC=C4 [AZD6738] (first compound max 10 µM, 7x7, partner max 10 µM)	0.353	0.419	0.272	0.468	0.325	0.743	0.776	0.892	–	0.74	0.913	1	0.924	0.798	0.983	0.696	1	0.175	0.636	0.491
Cc1cc2ncnn2cc1Nc1ncc2c(n1)n(C1CCOCC1)c(=O)n2C [AZD7648] + O=C(c1cc(Cc2n[nH]c(=O)c3ccccc23)ccc1F)N1CCN(C(=O)C2CC2)CC1 [Olaparib] (first compound max 10 µM, 7x7, partner max 10 µM)	0.185	0.104	0.132	0.41	0.102	0.472	0.529	0.176	–	0.177	0.686	0.853	0.514	0.814	0.25	0.322	0.14	0.132	0.21	0.165
COc1cccc2c1C(=O)c1c(O)c3c(c(O)c1C2=O)C[C@@](O)(C(=O)CO)C[C@@H]3O[C@H]1C[C@H](N)[C@H](O)[C@H](C)O1 [Doxorubicin] + Cc1cc2ncnn2cc1Nc1ncc2c(n1)n(C1CCOCC1)c(=O)n2C [AZD7648] (first compound max 1 µM, 7x7, partner max 10 µM)	0.859	0.328	0.33	0.682	0.182	0.69	0.782	0.823	–	0.337	1	0.961	0.994	0.935	0.932	0.923	1	0.715	0.936	0.432
COc1cccc(OCCCN)c1-c1cc(Nc2cnc(C#N)cn2)n[nH]1 [Prexasertib] + C=CCn1c(=O)c2cnc(Nc3ccc(N4CCN(C)CC4)cc3)nc2n1-c1cccc(C(C)(C)O)n1 [AZD1775] (first compound max 1 µM, partner max 1 µM)	0.783	0.747	0.807	0.856	0.544	0.82	0.811	0.98	–	1	1	1	1	0.945	0.997	0.915	1	0.307	0.862	0.64
COc1cccc(OCCCN)c1-c1cc(Nc2cnc(C#N)cn2)n[nH]1 [Prexasertib] + CN(C)CCCOc1ccc(-c2ccc3ncc4c(c3c2)n(C2CCOCC2)c(=O)n4C)cn1 [AZD0156] (first compound max 1 µM, 7x7, partner max 1 µM)	0.613	0.751	0.752	0.538	0.467	0.822	0.782	0.979	–	0.971	1	1	1	0.837	1	0.825	1	0.0457	0.775	0.619
COc1cccc(OCCCN)c1-c1cc(Nc2cnc(C#N)cn2)n[nH]1 [Prexasertib] + C[C@@H]1COCCN1C2=NC(=NC(=C2)C3(CC3)[S@](=N)(=O)C)C4=C5C=CNC5=NC=C4 [AZD6738] (first compound max 1 µM, 7x7, partner max 10 µM)	0.652	0.695	0.797	0.597	0.49	0.829	0.788	0.985	–	0.979	1	1	1	0.798	0.999	0.832	1	0.136	0.767	0.629
COc1cccc(OCCCN)c1-c1cc(Nc2cnc(C#N)cn2)n[nH]1 [Prexasertib] + Cc1cc2ncnn2cc1Nc1ncc2c(n1)n(C1CCOCC1)c(=O)n2C [AZD7648] (first compound max 1 µM, 7x7, partner max 10 µM)	0.622	0.712	0.75	0.612	0.587	0.806	0.814	0.948	–	0.981	1	1	1	0.842	1	0.87	1	0.0565	0.796	0.667
COc1cccc(OCCCN)c1-c1cc(Nc2cnc(C#N)cn2)n[nH]1 [Prexasertib] + O=C(c1cc(Cc2n[nH]c(=O)c3ccccc23)ccc1F)N1CCN(C(=O)C2CC2)CC1 [Olaparib] (first compound max 1 µM, 7x7, partner max 10 µM)	0.733	0.686	0.807	0.702	0.536	0.808	0.756	0.891	–	0.979	1	1	0.996	0.906	0.953	0.84	1	0.169	0.756	0.614
COc1cc2c(cc1OCCCCCOc1cc3c(cc1OC)C(=O)N1C=C(C)C[C@H]1C=N3)N=C[C@@H]1CC(C)=CN1C2=O [SG3199] + O=C(c1cc(Cc2n[nH]c(=O)c3ccccc23)ccc1F)N1CCN(C(=O)C2CC2)CC1 [Olaparib] (first compound max 0.001 µM, 7x7, partner max 10 µM)	0.183	0.0923	0.132	0.153	0.101	0.359	0.384	0.134	–	0.0966	0.689	0.509	0.445	0.828	0.176	0.144	0.107	0.13	0.113	0.0642
CCc1c2c(nc3ccc(O)cc13)-c1cc3c(c(=O)n1C2)COC(=O)[C@]3(O)CC [SN-38] + CN(C)CCCOc1ccc(-c2ccc3ncc4c(c3c2)n(C2CCOCC2)c(=O)n4C)cn1 [AZD0156] (first compound max 0.3 µM, 7x7, partner max 1 µM)	0.897	0.263	0.617	0.702	0.131	0.749	0.747	0.752	–	0.305	1	0.976	0.994	0.984	0.921	0.757	1	0.268	0.716	0.662
